Earlier results as cited in US20110044993A1, “METHOD FOR THE PREVENTION AND TREATMENT OF CANCER BY INHIBITION OF GPVI” (priority 2008, published 2011).

Biological target: T1, GPVI (Homo sapiens, UniProt Q9HCN6)
T1 sequence (Q9HCN6 21-339): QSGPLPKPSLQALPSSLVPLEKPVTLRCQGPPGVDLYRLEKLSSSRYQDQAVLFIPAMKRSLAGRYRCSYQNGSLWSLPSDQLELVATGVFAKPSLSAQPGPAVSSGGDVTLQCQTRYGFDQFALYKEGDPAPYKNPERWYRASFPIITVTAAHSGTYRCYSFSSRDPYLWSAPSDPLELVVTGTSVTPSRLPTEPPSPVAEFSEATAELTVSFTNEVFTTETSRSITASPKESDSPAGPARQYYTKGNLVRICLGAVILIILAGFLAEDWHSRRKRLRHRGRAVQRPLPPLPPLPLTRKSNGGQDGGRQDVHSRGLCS
T1 sequence (P30273 19-86 partner): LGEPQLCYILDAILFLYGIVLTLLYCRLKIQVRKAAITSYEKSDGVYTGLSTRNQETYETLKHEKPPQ
Conditions: cited from earlier work

## CCCCc1nc(Cl)c(C=O)n1Cc1ccc(-c2ccccc2-c2nn[nH]n2)cc1 [EXP3179]
  Inhibition of GPVI: inhibits GPVI
